{"source": "patent US20140142150A1", "about": "“TREATING NEUROPSYCHIATRIC DISORDERS” (THE GENERAL HOSPITAL CORPORATION, priority 2011, published 2014)", "tested_on": "stable schizophrenia patients", "assay": "placebo controlled add-on trial of once-weekly D-cycloserine, negative symptoms by modified SANS total score", "assay_type": "in vivo, human", "protocol": "Study procedures were approved by the Partners HealthCare and Massachusetts Department of Mental Health institutional review boards, and all participants provided written informed consent. A diagnosis of schizophrenia was confirmed by a consensus diagnostic conference based on results from a clinical diagnostic interview, chart review, and review of clinical history with treating physicians.\nSubjects were administered the Positive and Negative Syndrome Scale (PANSS) (Kay et al., Schizophrenia Bulletin 13:261-276) to assess symptom severity by trained raters who were blind to genotype.\nDNA was obtained from blood samples and genotyped for variants across two genes: G72 and GCPII. Specific variants were selected on the basis of (1) common occurrence in the general population (minor allele frequency >0.2), (2) coding for non-synonymous mutations in amino acid sequences, and (3) previous support in the literature for an association with schizophrenia. No additional genetic variants were studied. Genotyping was conducted using the MASSARRAY® platform (Sequenom, San Diego, Calif.) using the nucleotide primers shown in Table 2.\nNegative symptoms were measured by the modified SANS total score at baseline and at week 8, seven days after the last dose of study drug. […] The sample was subsequently enlarged to 45 subjects and G72 genotype was examined as a predictor of response. G72 is the most-validated schizophrenia risk gene that influences activity at the glycine site of the NMDA receptor complex. One G72 SNP, rs3916971 (M21), that achieved significant association with schizophrenia risk in a meta-analysis performed by “SzGene” (Bertram, Schizophr Bull. 34:806-12, 2008) was examined. In the enlarged sample of 45 subjects, the effect size of D-cycloserine improvement of negative symptoms compared to placebo increased to 0.9 and G72 genotype produced a drug x genotype effect size of 0.7. Within subjects receiving D-cycloserine, G72 genotype predicted response with an effect size of 0.9 and within subjects with the TT genotype, the effect size of D-cycloserine improvement of negative symptoms vs. placebo was 2.3 (FIG. 1).", "data": [{"smiles": "N[C@@H]1CONC1=O", "note": "[D-cycloserine]", "values": [{"measurement": "drug x genotype effect size (G72 rs3916971 genotype)", "setting": "enlarged sample of 45 subjects", "value": 0.7}, {"measurement": "effect size of improvement of negative symptoms compared to placebo", "setting": "enlarged sample of 45 subjects, once-weekly 50 mg", "value": 0.9}, {"measurement": "improvement of negative symptoms (modified SANS total score), effect size", "setting": "once-weekly 50 mg add-on to antipsychotics, 38 stable schizophrenia patients, baseline to week 8, vs placebo", "value": 0.7}, {"measurement": "patients exhibiting a 20% or greater improvement in SANS total score", "setting": "once-weekly 50 mg, 38 patients, week 8 (placebo group 11%)", "value": 30, "unit": "%"}, {"measurement": "G72 genotype prediction of response, effect size", "setting": "within subjects receiving D-cycloserine, enlarged sample", "value": 0.9}, {"measurement": "effect size of improvement of negative symptoms vs. placebo", "setting": "within subjects with the TT genotype at G72 rs3916971 (FIG. 1)", "value": 2.3}]}]}
